Source: patent publication US11634488B2, “Treatment of B cell malignancies using afucosylated pro-apoptotic anti-CD19 antibodies in combination with anti CD20 antibodies or chemotherapeutics” (INTERNATIONAL—DRUG—DEVELOPMENT—BIOTECH, priority 2017, dated 2023)

Tested on: Human follicular cell line RL
Assay: CDX model for FL: RL cells subcutaneously in SCID mice
Type: in vivo
Conditions: RL xenograft in SCID mice
Description: Human follicular cell line RL was subcutaneously injected in SCID mice, with a concentration of 5.10^6 cells per injection (200 μL). Mice were randomized when the tumors reached a mean volume of about 100 mm^3 for the 9 groups (total 45 mice). […] The endpoint was defined by animal ethics as a tumor diameter of >18 mm, significant weight loss or alteration of animal well-being. In order to assess the effectiveness of the compounds on tumorigenesis, tumor volume was measured two times a week. The sizes of the primary tumors were measured using calipers and the tumor volume (TV) was extrapolated to a sphere using the formula TV=4/3 […]×r^3, by calculating the mean radius from the two measurements. The median and standard deviation were also calculated for each group. Median is preferred to mean in order to exclude the extreme values. MAb treatment was administered by intraperitoneal injection twice a week during three weeks at 30, 10 or 1 mg/kg doses. The product was prepared in accordance with the sponsor's guidelines, i.e. diluted in PBS. Mice were sacrificed when the tumors reached a maximum volume of 1600 mm^3. The endpoints were defined by […] as a tumor diameter of >18 mm or weight loss of >10% of body weight, or when the tumors are dangerous for mice (necrosis). Statistical analysis was performed with GraphPad Prism software. GraphPad Prism combined scientific graphing, comprehensive curve fitting, understandable statistics, and data organization. The t-test (two-tailed test) was performed on the tumor volume values (mm^3) measured on the day of sacrifice.

[1] = Day 55, 1 mg/kg each MAb, percentage of mice

rituximab
mice in complete remission (1 mg/kg, day 45): 33% | Complete Remission [1]: 33 | Tumor progression [1]: 67
